Values joined by “and” are separate entries in the source; they are usually repeats but may differ in a detail not shown here. Equal values may be shown once.
How the values were obtained:
in vitro = settings: human, microsomes
Experimental: The metabolic stability assay was adapted from a previously published method. […] Reactions were quenched at 2, 5, 15, 30 and 60 min by the addition of acetonitrile containing 150 ng/mL diazepam as internal standard. Control samples (containing no cofactor) were included (quenched at 2, 30 and 60 min) to monitor degradation in the absence of cofactor. Concentrations were determined by LC–MS (Additional file 1: Table S2) by comparison to the response for a single point calibration standard prepared in quenched microsomal matrix.
Test compound concentration versus time data were fit using an exponential decay function to determine the first-order rate constant for substrate depletion. Where deviation from first-order kinetics was evident, only the initial linear portion of the logarithmic profile was utilized to determine the initial degradation rate constant (k, min^−1). Each substrate depletion rate constant was then used to calculate the in vitro intrinsic clearance value (CLint, in vitro, µL/min/mg protein) using Eq.
Unbound in vitro CLint values were obtained by dividing the measured CLint by the measured fu in microsomes.

human liver microsomes = settings: microsomal protein 0.5 mg/mL; ref [23]–[28] of Additional file 1; cited from earlier work

- microsomal CLint at 1 µM (in vitro; pH 7.4, Mean CLint): 21.4 µL/min/mg
- microsomal CLint at 1 µM (in vitro; pH 7.4, Range HLM CLint): 13.3 to 31.1 µL/min/mg
SMILES: CCOc1ccc(NC(C)=O)cc1 [phenacetin]
- Literature CLint (human liver microsomes): 27 µL/min/mg and 22.2 µL/min/mg
